In US10202347B2, “Compound, production method therefor, and use of said compound” (MICROBIAL CHEMISTRY RESEARCH FOUNDATION, priority 2013, dated 2019):
Like-named read-outs stand apart in the source and are kept apart here.

Assays:
[1] = system: Escherichia coli K-12 strain; assay: Measurement of MIC for Escherichia coli; type: cell-based; conditions: K12STRAIN, read-out: MIC Escherichia coli K-12
Description: Each of the above compounds was measured for minimum inhibitory concentration (MIC) for Staphylococcus aureus and Escherichia coli.
Staphylococcus aureus FDA209P strain and Escherichia coli K-12 strain each were cultured under shaking in a nutrient broth medium (polypeptone (product of NIHON PHARMACEUTICAL Co.) 1%, fish extract for bacteria (product of KYOKUTO PHARMACEUTICAL INDUSTRIAL Co.) 1%, and sodium chloride 0.2%) at 37° C. overnight.
After completion of the culturing, the culture was diluted with the nutrient broth medium so that the bacteria were 2×10^6 CFU/mL to 9×10^6 CFU/mL.
Each of the test samples (each of the above compounds, clarithromycin, and ampicillin) was prepared with the nutrient broth medium to have a concentration of 256 mg/L. From this concentration, the test sample was 2-fold diluted serially in 11 steps to 0.125 mg/L.
(§1) The above-diluted culture was added at 50 μL/well to 50 μL/well of the nutrient broth medium containing each of the test samples at the above concentrations, and was statically cultured at 37° C. overnight. After completion of the culturing, the presence or absence of proliferation of each bacterium was visually determined based on turbidity, and the MIC for each bacterial strain was obtained.

[2] = system: human stomach cancer cells MKN-74 cocultured with normal stromal cells derived from the human stomach, Hs738; assay: Cell proliferation test, coculture test with normal stromal cells Hs738 (GFP fluorescence); type: cell-based
Description: Human stomach cancer cells MKN-74 (Riken Cell Bank) were cultured at 37° C. and 5% CO2 in DMEM supplemented with 10% FBS (product of GIBCO Co.), 100 units/mL penicillin G (product of Invitrogen Co.), and 100 μg/mL streptomycin (product of Invitrogen Co.).
The above cancer cells were allowed to undergo gene transfer of Green fluorescence protein (GFP) expression vector, pEGFP-C1 (product of BD Biosciences Co.) using the Lipofectamine reagent (product of Invitrogen Co.), to thereby clone cells stably expressing GFP.
Normal stromal cells derived from the human stomach, Hs738 ((CRL-7869), ATCC) were cultured at 37° C. and 5% CO2 in DMEM supplemented with 10% FBS, 100 units/mL penicillin G (product of Invitrogen Co.), 100 μg/mL streptomycin (product of Invitrogen Co.), 5 μg/mL insulin, 5 μg/mL transferrin (product of Wako Pure Chemical Industries Co.), 1.4 μM hydrocortisone (product of Sigma Co.), and […] basic-FGF (product of Pepro Tech Co.).
The above normal stromal cells derived from the human stomach, Hs738 were dispersed at 5×10^4 cells/mL in DMEM containing 1% dialyzed serum, 5 μg/mL insulin, 5 μg/mL transferrine (product of Wako Pure Chemical Industries Co.), and 1.4 μM hydrocortisone (product of Sigma Co.), and were placed in a 96-well plate at 0.1 mL/well. Respective evaluation samples (the compounds expressed by Structural Formulas (1) to (13)) were added thereto at respective concentrations, followed by culturing at 37° C. and 5% CO2 for 2 days.
Next, the above human stomach cancer cells MKN-74 were dispersed in DMEM at 5×10^5 cells/mL, and were placed at 10 μL/well in the plate in which the above normal stromal cells derived from the human stomach, Hs738 had been cultured, followed by further coculturing at 37° C. and 5% CO2 for 3 days.
Measurement of cell proliferation rates in the above coculture test and monoculture test was performed in the following manner.
The medium was removed from the wells of the above plate, and a cytolysis liquid (10 mM Tris-HCl [pH 7.4], 150 mM NaCl, 0.9 mM CaCl2, and 1% Triton X-100) was added thereto at 0.1 mL/well to lyse the cells. The fluorescence intensity of GFP was measured at an excitation wavelength of 485 nm and a fluorescence wavelength of 538 nm, and the cell proliferation rates were calculated from the following formula. Cell proliferation rate (%)=(Fluorescence intensity in the presence of the evaluation sample/Fluorescence intensity in the absence of the evaluation sample)×100

[3] = system: H. pylori JCM12095 strain; assay: Measurement of MIC for H. pylori JCM12095; type: cell-based; conditions: Helicobacter pylori, read-out: MIC H. pylori JCM 12095
Description: (§2) Each of the above compounds was measured for minimum inhibitory concentration (MIC) for Helicobacter pylori.
(§3) Helicobacter pylori JCM12093 strain and H. pylori JCM12095 strain each were statically cultured in a HP medium (brain heart infusion broth (product of Becton, Dickinson Co.) supplemented with 10% fetal bovine serum (product of Life Technologies Co.)) for 144 hours at 37° C. under microaerobic culture conditions (microaerobic conditions (N2:O2:CO2=85:5:10)).
(§4) After completion of the culturing, the culture was suspended with the HP medium and diluted so that Helicobacter pylori was 2×10^6 CFU/mL to 9×10^6 CFU/mL.
(§5) Each of the test samples (each of the above compounds, clarithromycin, and ampicillin) was prepared with the HP medium to have a concentration of 256 mg/L. From this concentration, the test sample was 2-fold diluted serially in 15 steps to 0.0078 mg/L.
as §1, with “HP” for “nutrient broth”, “cultured for 144 hours” for “cultured”, “under microaerobic culture conditions (microaerobic conditions (N2:O2:CO2=85:5:10)).” for “overnight.”

[4] = system: human stomach cancer cells MKN-74; assay: Anti-cancer activity in vivo, Test Example 2-1: MKN-74 alone, subcutaneous tumor in nude mice; parameters: species or system BALB/c nu/nu nude mice; conditions: intravenous administration at 12.5 mg/kg, FIGS. 1A, 1B
Description: BALB/c nu/nu nude mice (female, 5 weeks old, product of Charles River Co.) were bred under the SPF conditions.
Cultured human stomach cancer cells MKN-74 were trypsinized, and the human stomach cancer cells MKN-74 (8×10^6 cells) peeled off from the culture dish were dispersed in 0.3 mL DMEM containing 10% FBS and mixed with 0.5 mL growth factor-reduced Matrigel (product of BD Biosciences Co.).
The above mixed cell liquid (0.1 mL) (cancer cells: 1×10^6 cells) was subcutaneously inoculated to the left groin region of the above mice.
The compound expressed by the Structural Formula (2) or the compound expressed by the Structural Formula (13) was intravenously administered for a predetermined period, and tumor formed under the skin was cut out and measured for weight. Note that, the administration dose of the compound expressed by the Structural Formula (2) or the compound expressed by the Structural Formula (13) was 12.5 mg/kg per administration day.
Also, a tumor volume was calculated from the following formula referring to the above NPL 1. Tumor volume (mm^3)=(major axis×minor axis^2)/2
Note that, as controls, those to which physiological saline (vehicle) was administered instead of the compound expressed by the Structural Formula (2) or the compound expressed by the Structural Formula (13) were tested in the same manner.

[5] = system: Helicobacter pylori JCM12093 strain; assay: Measurement of MIC for Helicobacter pylori JCM12093; type: cell-based; conditions: for MIC: Helicobacter pylori, read-out: MIC Helicobacter pylori JCM 12093; for anti-Helicobacter pylori activity (in words): summary of Table 3, H. pylori JCM12093 and JCM12095 strains
Description: as §2, §3, §4, §5
as §1, with “HP” for “nutrient broth”, “cultured for 144 hours” for “cultured”, “under microaerobic culture conditions (microaerobic conditions (N2:O2:CO2=85:5:10)).” for “overnight.”

[6] = nutrient broth medium, 37° C. overnight
[7] = coculture test, MKN-74 with stromal cells Hs738, cell proliferation rate, average of duplicate, read-out: Cocul IC50
[8] = JCM12095, HP medium, 144 hours, 37° C., microaerobic
[9] = JCM12093, HP medium, 144 hours, 37° C., microaerobic

Structure (SMILES) | MIC [1, 6] [µg/mL] | IC50 [2, 7] [µg/mL] | MIC [3, 8] [µg/mL] | tumor suppression (tumor volume, tumor weight Day 21) [4] | MIC [5, 9] [µg/mL] | anti-Helicobacter pylori activity (in words) [5] | MIC [1] [µg/mL] | IC50 ([2]; MKN-74, read-out: Cocul IC50) [µg/mL] | MIC ([3]; JCM12095, 144 h) [µg/mL] | MIC ([5]; JCM12093, 144 h) [µg/mL]
CCCCCCCCc1nc2ccccc2c(OCC(=O)O)c1C [Structural Formula (2)] | 128 | 0.37 | 0.5 | significant suppression | 1 | – | – | – | – | –
Cc1c(CCCC/C=C/C(C)C)[nH]c2ccccc2c1=O [Structural Formula (3)] | > 128 | 0.012 | 0.016 | – | 0.008 | exhibited anti-Helicobacter pylori activity at low concentrations | – | – | – | –
Cc1c(CC(C)C)[nH]c2ccccc2c1=O [Structural Formula (4)] | 128 | 1.32 | 0.25 | – | 0.5 | – | – | – | – | –
CCCCCCCCc1c(C)c(=O)c2ccccc2n1CC(=O)OC [Structural Formula (5)] | > 128 | 0.53 | 2 | – | 2 | – | – | – | – | –
CCCCCCCCc1c(C)c(=O)c2ccccc2n1CC(=O)O [Structural Formula (6)] | 128 | 4.15 | 0.25 | – | 1 | – | – | – | – | –
CCCCCCCc1c(C)c(=O)c2ccccc2n1CN=C=S [Structural Formula (11)] | – | 0.12 | 0.016 | – | 0.016 | exhibited anti-Helicobacter pylori activity at low concentrations | > 128 | – | – | –
CCCCCCCc1c(C)c(=O)c2ccccc2n1CNC(=S)SC [Structural Formula (12)] | > 128 | – | – | – | – | exhibited anti-Helicobacter pylori activity at low concentrations | – | 2.91 | 0.06 | 0.03
CCCCCCCc1c(C)c(=O)c2ccccc2n1CN=C(SC)SC [Structural Formula (13)] | > 128 | – | – | – | – | – | – | 0.78 | 2 | 2
